Measurements published in ChEMBL document CHEMBL1201862, “PubChem BioAssay data set” (2004).
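Exposure lasted 48 hours, with cells grown in 96-well plates and compounds tested at five concentrations. GI50 = concentration required for 50% inhibition of growth.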 Calls of active or inactive are those of the source. No stated cut-off is given here; in the data, active = GI50 up to about 1.1 µM and inactive = higher.

What was measured:
Assay in all cases: inhibition of tumour cell growth, NCI panel, 48 h
NCI-H226 = tested on: NCI-H226
SF-295 = tested on: SF-295
SW-620 = tested on: SW-620
HL-60 = tested on: HL-60
M19-MEL = tested on: M19-MEL
Malme-3M = tested on: Malme-3M
OVCAR-5 = tested on: OVCAR-5
CCRF-CEM = tested on: CCRF-CEM
HOP-62 = tested on: HOP-62
NCI-H460 = tested on: NCI-H460
UACC-257 = tested on: UACC-257
RPMI-8226 = tested on: RPMI-8226
LXFL 529 = tested on: LXFL 529
U-251 = tested on: U-251
M14 = tested on: M14
COLO 205 = tested on: COLO 205
SN12C = tested on: SN12C
MOLT-4 = tested on: MOLT-4
SNB-19 = tested on: SNB-19
TK-10 = tested on: TK-10
KM-20L2 = tested on: KM-20L2
K562 = tested on: K562
ACHN = tested on: ACHN
SK-OV-3 = tested on: SK-OV-3
HT-29 = tested on: HT-29
RXF 393 = tested on: RXF 393
DLD-1 = tested on: DLD-1
SNB-75 = tested on: SNB-75
CAKI-1 = tested on: CAKI-1
OVCAR-4 = tested on: OVCAR-4
OVCAR-3 = tested on: OVCAR-3
SF-268 = tested on: SF-268
HOP-92 = tested on: HOP-92
786-0 = tested on: 786-0
HCC 2998 = tested on: HCC 2998
A498 = tested on: A498
NCI-H23 = tested on: NCI-H23
SNB-78 = tested on: SNB-78
KM12 = tested on: KM12
UACC-62 = tested on: UACC-62
UO-31 = tested on: UO-31
IGROV-1 = tested on: IGROV-1
SK-MEL-2 = tested on: SK-MEL-2
NCI-H522 = tested on: NCI-H522
SK-MEL-5 = tested on: SK-MEL-5
EKVX = tested on: EKVX
OVCAR-8 = tested on: OVCAR-8
A549 = tested on: A549
HCT-116 = tested on: HCT-116
DMS-273 = tested on: DMS-273
HOP-18 = tested on: HOP-18
DMS-114 = tested on: DMS-114
HCT-15 = tested on: HCT-15
SK-MEL-28 = tested on: SK-MEL-28
LOX IMVI = tested on: LOX IMVI
SF-539 = tested on: SF-539
SR = tested on: SR
XF498 = tested on: XF498

Cc1c2ccnc(O)c2cc2c(=O)c3cnccc3[nH]c12
GI50 (NCI-H226): > 100 µM (inactive) | GI50 (SF-295): > 100 µM (inactive) | GI50 (SW-620): > 100 µM (inactive) | GI50 (HL-60): > 100 µM (inactive) | GI50 (M19-MEL): > 100 µM (inactive) | GI50 (Malme-3M): > 100 µM (inactive) | GI50 (OVCAR-5): > 100 µM (inactive) | GI50 (CCRF-CEM): > 100 µM (inactive) | GI50 (HOP-62): > 100 µM (inactive) | GI50 (NCI-H460): > 100 µM (inactive) | GI50 (UACC-257): > 100 µM (inactive) | GI50 (RPMI-8226): > 100 µM (inactive) | GI50 (LXFL 529): > 100 µM (inactive) | GI50 (U-251): > 100 µM (inactive) | GI50 (M14): > 100 µM (inactive) | GI50 (COLO 205): > 100 µM (inactive) | GI50 (SN12C): > 100 µM (inactive) | GI50 (MOLT-4): > 100 µM (inactive) | GI50 (SNB-19): > 100 µM (inactive) | GI50 (TK-10): > 100 µM (inactive) | GI50 (KM-20L2): > 100 µM (inactive) | GI50 (K562): > 100 µM (inactive) | GI50 (ACHN): > 100 µM (inactive) | GI50 (SK-OV-3): > 100 µM (inactive) | GI50 (HT-29): > 100 µM (inactive) | GI50 (RXF 393): > 100 µM (inactive) | GI50 (DLD-1): > 100 µM (inactive) | GI50 (SNB-75): > 100 µM (inactive) | GI50 (CAKI-1): > 100 µM (inactive) | GI50 (OVCAR-4): > 100 µM (inactive) | GI50 (OVCAR-3): > 100 µM (inactive) | GI50 (SF-268): > 100 µM (inactive) | GI50 (HOP-92): > 100 µM (inactive) | GI50 (786-0): > 100 µM (inactive) | GI50 (HCC 2998): > 100 µM (inactive) | GI50 (A498): > 100 µM (inactive) | GI50 (NCI-H23): > 100 µM (inactive) | GI50 (SNB-78): > 100 µM (inactive) | GI50 (KM12): > 100 µM (inactive) | GI50 (UACC-62): > 100 µM (inactive) | GI50 (UO-31): > 100 µM (inactive) | GI50 (IGROV-1): > 100 µM (inactive) | GI50 (SK-MEL-2): > 100 µM (inactive) | GI50 (NCI-H522): > 100 µM (inactive) | GI50 (SK-MEL-5): > 100 µM (inactive) | GI50 (EKVX): > 100 µM (inactive) | GI50 (OVCAR-8): > 100 µM (inactive) | GI50 (A549): > 100 µM (inactive) | GI50 (HCT-116): > 100 µM (inactive) | GI50 (DMS-273): > 100 µM (inactive) | GI50 (HOP-18): > 100 µM (inactive) | GI50 (DMS-114): > 100 µM (inactive) | GI50 (HCT-15): > 100 µM | GI50 (SK-MEL-28): > 100 µM (inactive) | GI50 (LOX IMVI): > 100 µM (inactive)

COc1ccc(/C=C/c2nnc(S)[nH]2)cc1OC
GI50 (NCI-H226): > 100 µM (inactive) | GI50 (SF-295): > 100 µM (inactive) | GI50 (SW-620): > 100 µM (inactive) | GI50 (HL-60): > 100 µM (inactive) | GI50 (M19-MEL): > 100 µM (inactive) | GI50 (Malme-3M): > 100 µM (inactive) | GI50 (OVCAR-5): > 100 µM (inactive) | GI50 (CCRF-CEM): > 100 µM (inactive) | GI50 (NCI-H460): > 100 µM (inactive) | GI50 (UACC-257): > 100 µM (inactive) | GI50 (RPMI-8226): > 100 µM (inactive) | GI50 (LXFL 529): > 100 µM (inactive) | GI50 (U-251): > 100 µM (inactive) | GI50 (M14): > 100 µM (inactive) | GI50 (SN12C): > 100 µM (inactive) | GI50 (MOLT-4): > 100 µM (inactive) | GI50 (SNB-19): > 100 µM (inactive) | GI50 (TK-10): > 100 µM (inactive) | GI50 (SF-539): > 100 µM (inactive) | GI50 (KM-20L2): > 100 µM (inactive) | GI50 (K562): > 100 µM (inactive) | GI50 (ACHN): > 100 µM (inactive) | GI50 (HT-29): > 100 µM (inactive) | GI50 (RXF 393): > 100 µM (inactive) | GI50 (DLD-1): > 100 µM (inactive) | GI50 (SNB-75): > 100 µM (inactive) | GI50 (CAKI-1): > 100 µM (inactive) | GI50 (OVCAR-4): > 100 µM (inactive) | GI50 (OVCAR-3): > 100 µM (inactive) | GI50 (SF-268): > 100 µM (inactive) | GI50 (HOP-92): > 100 µM (inactive) | GI50 (786-0): > 100 µM (inactive) | GI50 (HCC 2998): > 100 µM (inactive) | GI50 (A498): > 100 µM (inactive) | GI50 (NCI-H23): > 100 µM (inactive) | GI50 (SNB-78): > 100 µM (inactive) | GI50 (UACC-62): > 100 µM (inactive) | GI50 (UO-31): > 100 µM (inactive) | GI50 (IGROV-1): > 100 µM (inactive) | GI50 (SK-MEL-2): > 100 µM (inactive) | GI50 (SK-MEL-5): > 100 µM (inactive) | GI50 (OVCAR-8): > 100 µM (inactive) | GI50 (A549): > 100 µM (inactive) | GI50 (HCT-116): > 100 µM (inactive) | GI50 (SR): > 100 µM (inactive) | GI50 (DMS-273): > 100 µM (inactive) | GI50 (DMS-114): > 100 µM (inactive) | GI50 (HCT-15): > 100 µM | GI50 (SK-MEL-28): > 100 µM (inactive) | GI50 (XF498): > 100 µM (inactive) | GI50 (LOX IMVI): > 100 µM (inactive)
